Results: patent US20260250312A1, “ANTIBACTERIAL COMPOUNDS ELIMINATING DORMANT BACTERIAL CELLS” (UNIVERSITÉ D'AIX-MARSEILLE, priority 2022, published 2026)
≈ marks a conversion by molar mass, not a printed value. Where “and” joins values, the source holds several entries; their conditions need not be identical. Identical values can stand only once. Like-named read-outs stand apart in the source and are kept apart here. Marks after values point to notes of the source that are not given here.

Experiments:
[1] = test system: Escherichia coli (E. coli) persister cells; assay: Anti-persister activity test, persister cells; type: cell-based; conditions: for anti-persister activity (in words): E. coli persister cells, Table 8 conditions; for viability at 125 µM: read-out: Persister cell survival rate 96 h, concentration used 125 μM, 4 hours treatment
Experimental: (§1) Anti-persister activity test: Escherichia coli (E. coli) persister cells were generated and isolated as described by MARQUES, C. N. H. et al. (Applied and Environmental Microbiology 2014, Vol. 80, No. 22, pp. 6976-6991). E. coli persister cells were compared to E. coli non-persister cells. 1 mL persister or non-persister bacteria culture was added in a 1.5 mL microtube with each of the compounds to be tested or ciprofloxacin as a […], and incubated at 37° C. with 160 rpm shaking for 4 hours. After 4 hours treatment with the compounds, the microtubes were centrifuged at 3,500g for 5 minutes and the pellets were resuspended in 1 mL of fresh drug free RM broth (10 g/L M9 salt, 2% casamino acids, 1 mM MgCl2, 1% glycerol). Resuspended bacteria were then plated over LB agar plates and incubated at 37° C. Bacterial colonies were enumerated after 24, 48 and 96 hours to estimate the survival rate.

[2] = test system: CHO-K1 cells; assay: WST1 cytotoxicity test; type: cell-based, Chinese hamster
In short: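 CHO-K1 cells pre-cultured 24 h, then exposed 24 h at 37 °C to increasing compound concentrations. Viability read as WST-1 formazan absorbance at 450 nm after 20 min; dose-response fitted by nonlinear regression.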

[3] = test system: Enterococcus faecalis (ATCC29212); assay: Microdilution MIC assay (CLSI-based), E. faecalis; type: cell-based; conditions: 20 hours incubation at 35-37° C., MHB; for MIC: Enterococcus faecalis, ATCC29212, 20 h, read-out: Minimum inhibitory concentration E. faecalis ATCC29212
In short: (§2)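 Broth microdilution per modified CLSI guidelines in Mueller Hinton broth, 200 μL, inoculum ca. 5×10^5 CFU/mL; compounds tested as salts, twofold dilutions from 0.2 mg/mL, in triplicate. MIC determined from OD at 620 nm after incubation.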

[4] = test system: E. coli non-persister cells; assay: Anti-persister activity test, non-persister cells; type: cell-based, Escherichia coli; conditions: for activity on non-persister cells (in words): E. coli non-persister cells, Table 8 conditions; for viability at 125 µM: read-out: Non-persister cell survival rate 96 h, concentration used 125 μM, 4 hours treatment
Experimental: as §1

[5] = test system: Pseudomonas aeruginosa (ATCC27853); assay: Microdilution MIC assay (CLSI-based), P. aeruginosa; type: cell-based; conditions: 20 hours incubation at 35-37° C., MHB; for MIC: Pseudomonas aeruginosa, ATCC27853, 20 h, read-out: Minimum inhibitory concentration P. aeruginosa ATCC27853
In short: as §2

[6] = test system: Escherichia coli (ATCC28922); assay: Microdilution MIC assay (CLSI-based), E. coli; type: cell-based; conditions: 20 hours incubation at 35-37° C., MHB; for MIC: Escherichia coli, ATCC28922, 20 h, read-out: Minimum inhibitory concentration E. coli ATCC28922
In short: as §2

[7] = test system: Staphylococcus aureus (ATCC25923); assay: Microdilution MIC assay (CLSI-based), S. aureus; type: cell-based; conditions: 20 hours incubation at 35-37° C., MHB; for MIC: Staphylococcus aureus, ATCC25923, 20 h, read-out: Minimum inhibitory concentration S. aureus ATCC25923
In short: as §2

[8] = concentration used 250 μM, 4 hours treatment
[9] = Cricetulus griseus, CHO-K1, 24 h, WST1, 24 hours at 37° C., read-out: IC50 CHO
[10] = Cricetulus griseus, CHO-K1, WST1, as printed in Table 8, read-out: Toxicity IC50 CHO

Compound | anti-persister activity (in words) [1] | activity on non-persister cells (in words) [4] | IC50 [2, 9] | IC50 [2, 10] | MIC [3] | MIC [5] | MIC [6] | MIC [7] | viability at 125 µM ([1]; Escherichia coli, 4 h) | viability at 125 µM ([4]; Escherichia coli, 4 h) | further results
COC(=O)[C@H](NC(=O)CC[C@@H](C)[C@H]1CCC2C3C(CC[C@@]21C)[C@@]1(C)CC[C@H](NCCCNCCCN)C[C@H]1C[C@H]3O)C(C)C (stereo partly drawn) [Compound S017, methyl ((4R)-4-((3S,5S,7R,10S,13R,17R)-3-((3-((3-aminopropyl)amino)propyl)amino)-7-hydroxy-10,13-dimethylhexadecahydro-1H-cyclopenta[a]phenanthren-17-yl)pentanoyl)-D-valinate] | not as good on persister cells | good activity on non-persister cells |  |  |  |  |  |  |  |  | Persister cell survival rate 96 h [1, 8]: 0.6%; IC50 CHO ([2]; WST1, 24 hours at 37° C.): 33.23 µg/mL (≈ 53.7 µM); IC50 ([2]; WST1, 24 hours at 37° C., read-out: IC50 CHO): 53.7 µM; IC50 ([2]; WST1, Table 8, read-out: Toxicity IC50 CHO): 53.7 µM; Minimum inhibitory concentration E. faecalis ATCC29212 [3]: 25* μM and 16* μg/mL; Non-persister cell survival rate 96 h [4, 8]: 0.0%; Minimum inhibitory concentration P. aeruginosa ATCC27853 [5]: 50* μM and 32* μg/mL; Minimum inhibitory concentration E. coli ATCC28922 [6]: 12.5* μM and 8* μg/mL; Minimum inhibitory concentration S. aureus ATCC25923 [7]: 12.5* μM and 8* μg/mL
COC(=O)[C@H](Cc1ccc(O)cc1)NC(=O)CC[C@@H](C)[C@H]1CCC2C3C(CC[C@@]21C)[C@@]1(C)CC[C@H](NCCCNCCCCNCCCN)C[C@H]1C[C@H]3O (stereo partly drawn) [Compound S039, methyl ((4R)-4-((3S,5S,7R,10S,13R,17R)-3-((3-((4-((3-aminopropyl)amino)butyl)amino)propyl)amino)-7-hydroxy-10,13-dimethylhexadecahydro-1H-cyclopenta[a]phenanthren-17-yl)pentanoyl)-L-tyrosinate] | very potent anti-persister activity |  | 60 µM and 45.3 µg/mL | 60 µM | 12.5 µM and 8 µg/mL | 6.25 µM and 4 µg/mL | 6.25 µM and 4 µg/mL | 6.25 µM and 4 µg/mL |  |  | viability at 62.5 µM ([1]; Escherichia coli, 4 h, read-out: Persister cell survival rate 96 h, concentration used 62.5 μM, 4 hours treatment): 0%; toxicity results (in words) [2]: good toxicity results; viability at 62.5 µM ([4]; Escherichia coli, 4 h, read-out: Non-persister cell survival rate 96 h, concentration used 62.5 μM, 4 hours treatment): 2.7%
COC(=O)[C@H]1CCCN1C(=O)CC[C@@H](C)[C@H]1CCC2C3C(CC[C@@]21C)[C@@]1(C)CC[C@H](NCCCNCCNCCCN)C[C@H]1C[C@H]3O (stereo partly drawn) [Compound S046, methyl ((4R)-4-((3S,5S,7R,10S,13R,17R)-3-((3-((2-((3-aminopropyl)amino)ethyl)amino)propyl)amino)-7-hydroxy-10,13-dimethylhexadecahydro-1H-cyclopenta[a]phenanthren-17-yl)pentanoyl)-D-prolinate] | very potent anti-persister activity |  | 9.53 µM and 6.29 µg/mL | 9.53 µM | 6.25 µM and 4 µg/mL | 12.5 µM and 8 µg/mL | 12.5 µM and 8 µg/mL | 12.5 µM and 8 µg/mL | 0% | 0.3% | 
CC[C@H](C)[C@H](NC(=O)CC[C@@H](C)[C@H]1CC[C@H]2[C@@H]3[C@H](O)C[C@@H]4C[C@@H](NCCCNCCNCCCN)CC[C@]4(C)[C@H]3CC[C@]12C)C(=O)OC [Compound S041, methyl (2S,3S)-2-((4R)-4-((3S,5S,7R,10S,13R,17R)-3-((3-((2-((3-aminopropyl)amino)ethyl)amino)propyl)amino)-7-hydroxy-10,13-dimethylhexadecahydro-1H-cyclopenta[a]phenanthren-17-yl)pentanamido)-3-methylpentanoate] | not as good on persister cells | good activity on non-persister cells | 9.8 µM and 6.63 µg/mL | 9.8 µM | 12.5 µM and 8 µg/mL | 12.5 µM and 8 µg/mL | 12.5 µM and 8 µg/mL | 12.5 µM and 8 µg/mL | 0.1% | 0% | 
